Measured values reported in ChEMBL document CHEMBL1145576, “Synthesis and structure-activity relationship of aminopyrimidine IKK2 inhibitors” (Bioorg Med Chem Lett, 2008).

molecular target: T1, Inhibitor of nuclear factor kappa-B kinase subunit alpha (Homo sapiens, UniProt O15111); test: Inhibition of IKK1; conditions: not given
T1 sequence (O15111 whole entry): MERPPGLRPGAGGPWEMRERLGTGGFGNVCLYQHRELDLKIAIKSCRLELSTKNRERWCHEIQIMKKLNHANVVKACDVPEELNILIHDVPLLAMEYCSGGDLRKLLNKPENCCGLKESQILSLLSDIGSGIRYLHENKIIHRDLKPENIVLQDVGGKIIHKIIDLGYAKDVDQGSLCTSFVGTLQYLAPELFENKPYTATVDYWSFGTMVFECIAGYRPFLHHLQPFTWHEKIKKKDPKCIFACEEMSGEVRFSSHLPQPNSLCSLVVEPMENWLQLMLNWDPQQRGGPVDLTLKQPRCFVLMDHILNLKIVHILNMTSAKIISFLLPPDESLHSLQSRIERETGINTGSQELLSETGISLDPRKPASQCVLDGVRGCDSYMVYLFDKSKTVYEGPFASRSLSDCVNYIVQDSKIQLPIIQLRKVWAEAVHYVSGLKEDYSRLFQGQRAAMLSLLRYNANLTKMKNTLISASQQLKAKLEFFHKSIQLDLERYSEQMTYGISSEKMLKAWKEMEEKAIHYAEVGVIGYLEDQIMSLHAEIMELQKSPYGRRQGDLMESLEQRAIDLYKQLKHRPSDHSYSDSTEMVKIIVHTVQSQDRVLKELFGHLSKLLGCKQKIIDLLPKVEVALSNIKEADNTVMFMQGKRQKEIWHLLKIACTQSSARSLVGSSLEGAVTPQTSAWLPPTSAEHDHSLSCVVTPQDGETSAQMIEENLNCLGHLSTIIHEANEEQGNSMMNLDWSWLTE

IC50 [µM] | SMILES
0.85 | O=S(=O)(c1ccc(-c2ccnc(Nc3ccc4ncsc4c3)n2)cc1)N1CCNCC1
2.63 | CN1CCN(c2ccc(-c3ccnc(Nc4ccc5ncsc5c4)n3)cc2)CC1
0.146 | O=C(Nc1ccc(-c2ccnc(Nc3ccc4ncsc4c3)n2)cc1)C1CCCN1 (stereo unspecified)
1.91 | O=C(Nc1ccc(-c2ccnc(Nc3ccc4ncsc4c3)n2)cc1)C1CCNCC1
13 | COc1cccc2nc(-c3cccs3)nc(NN3C(=O)C=C(C)C3=O)c12 [AS-602868]
0.731 | NCCC(=O)Nc1ccc(-c2ccnc(Nc3ccc4ncsc4c3)n2)cc1
5 | O=S(=O)(c1ccc(-c2ccnc(Nc3ccc4ncsc4c3)n2)cc1)N1CCSCC1
4.84 | O=S(=O)(Nc1ccc(-c2ccnc(Nc3ccc4ncsc4c3)n2)cc1)c1ccc2nonc2c1
2.99 | O=S(=O)(Nc1ccc(-c2ccnc(Nc3ccc4ncsc4c3)n2)cc1)c1ccc(Cl)cc1
6.7 | O=S(=O)(c1ccc(-c2ccnc(Nc3ccc4ncsc4c3)n2)cc1)N1CCOCC1

tested on: A549; test: Inhibition of TNF-alpha-stimulated E-selectin promoter transfected human A549 cells after 6 hrs; type: functional, cell-based; conditions: A549, 6 h

IC50 [µM] | SMILES
5.7 | O=S(=O)(c1ccc(-c2ccnc(Nc3ccc4ncsc4c3)n2)cc1)N1CCNCC1
1.27 | CN1CCN(c2ccc(-c3ccnc(Nc4ccc5ncsc5c4)n3)cc2)CC1
3.82 | O=C(Nc1ccc(-c2ccnc(Nc3ccc4ncsc4c3)n2)cc1)C1CCNCC1
1.92 | CN(C)S(=O)(=O)c1ccc(-c2ccnc(Nc3ccc4ncsc4c3)n2)cc1
0.289 | O=S(=O)(c1ccc(-c2ccnc(Nc3ccc4ncsc4c3)n2)cc1)N1CCSCC1
17.8 | O=S(=O)(Nc1ccc(-c2ccnc(Nc3ccc4ncsc4c3)n2)cc1)c1ccc2nonc2c1
1.5 | O=S(=O)(c1ccc(-c2ccnc(Nc3ccc4ncsc4c3)n2)cc1)N1CCCC1
1.81 | O=S(=O)(c1ccc(-c2ccnc(Nc3ccc4ncsc4c3)n2)cc1)N1CCOCC1
2.08 | O=S(=O)(c1ccc(-c2ccnc(Nc3ccc4ncsc4c3)n2)cc1)N1CCCCC1

tested on: not listed separately; test: Selectivity ratio of IC50 for IKK1 to IC50 for IKK2; conditions: not given

Ratio IC50 | SMILES
13 | O=S(=O)(c1ccc(-c2ccnc(Nc3ccc4ncsc4c3)n2)cc1)N1CCNCC1
6 | CN1CCN(c2ccc(-c3ccnc(Nc4ccc5ncsc5c4)n3)cc2)CC1
1 | O=C(Nc1ccc(-c2ccnc(Nc3ccc4ncsc4c3)n2)cc1)C1CCCN1 (stereo unspecified)
> 4 | O=c1ccn(-c2ccc(-c3ccnc(Nc4ccc5ncsc5c4)n3)cc2)cc1
> 24 | CN(C)S(=O)(=O)c1ccc(-c2ccnc(Nc3ccc4ncsc4c3)n2)cc1
3 | NCCC(=O)Nc1ccc(-c2ccnc(Nc3ccc4ncsc4c3)n2)cc1
21 | O=S(=O)(Nc1ccc(-c2ccnc(Nc3ccc4ncsc4c3)n2)cc1)c1ccc2nonc2c1
3 | O=S(=O)(Nc1ccc(-c2ccnc(Nc3ccc4ncsc4c3)n2)cc1)c1ccc(Cl)cc1
> 22 | O=S(=O)(c1ccccc1)c1ccc(-c2ccnc(Nc3ccc4ncsc4c3)n2)cc1
> 17 | O=S(=O)(c1ccc(-c2ccnc(Nc3ccc4ncsc4c3)n2)cc1)N1CCCCC1
> 14 | c1cn(-c2ccc(-c3ccnc(Nc4ccc5ncsc5c4)n3)cc2)cn1

molecular target: T2, Inhibitor of nuclear factor kappa-B kinase subunit alpha (Homo sapiens) (UniProt O15111); test: Inhibition of IKK1 at 10 uM; conditions: not given
T2 sequence (whole entry): T1 sequence (O15111 whole entry)

inhibition [%] | SMILES
14 | O=c1ccn(-c2ccc(-c3ccnc(Nc4ccc5ncsc5c4)n3)cc2)cc1
28 | CN(C)S(=O)(=O)c1ccc(-c2ccnc(Nc3ccc4ncsc4c3)n2)cc1
48 | O=S(=O)(c1ccc(-c2ccnc(Nc3ccc4ncsc4c3)n2)cc1)N1CCCC1
24 | O=S(=O)(c1ccccc1)c1ccc(-c2ccnc(Nc3ccc4ncsc4c3)n2)cc1
30 | O=S(=O)(c1ccc(-c2ccnc(Nc3ccc4ncsc4c3)n2)cc1)N1CCCCC1
34 | c1cn(-c2ccc(-c3ccnc(Nc4ccc5ncsc5c4)n3)cc2)cn1

molecular target: T3, Inhibitor of nuclear factor kappa-B kinase subunit beta (Homo sapiens, UniProt O14920); test: Inhibition of IKK2; conditions: not given
T3 sequence (O14920 whole entry): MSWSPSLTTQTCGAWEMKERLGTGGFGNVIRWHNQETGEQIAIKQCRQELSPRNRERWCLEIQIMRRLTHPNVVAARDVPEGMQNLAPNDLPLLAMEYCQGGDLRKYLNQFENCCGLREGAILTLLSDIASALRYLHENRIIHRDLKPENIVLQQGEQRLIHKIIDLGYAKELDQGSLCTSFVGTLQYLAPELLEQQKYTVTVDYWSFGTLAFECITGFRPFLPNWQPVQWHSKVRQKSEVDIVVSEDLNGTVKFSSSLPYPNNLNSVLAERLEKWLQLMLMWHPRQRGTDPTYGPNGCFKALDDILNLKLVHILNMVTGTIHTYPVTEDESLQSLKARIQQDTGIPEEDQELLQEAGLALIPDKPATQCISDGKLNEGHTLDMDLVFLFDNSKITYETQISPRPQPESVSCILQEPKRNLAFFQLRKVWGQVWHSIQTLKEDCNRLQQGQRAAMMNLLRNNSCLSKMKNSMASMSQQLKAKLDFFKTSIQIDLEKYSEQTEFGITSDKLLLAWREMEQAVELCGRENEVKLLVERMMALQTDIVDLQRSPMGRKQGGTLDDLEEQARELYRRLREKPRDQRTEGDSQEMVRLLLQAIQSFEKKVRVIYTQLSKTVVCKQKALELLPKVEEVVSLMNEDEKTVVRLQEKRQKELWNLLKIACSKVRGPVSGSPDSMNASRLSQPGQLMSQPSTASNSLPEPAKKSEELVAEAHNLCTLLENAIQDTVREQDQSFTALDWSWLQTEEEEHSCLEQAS

IC50 [µM] | SMILES
0.064 | O=S(=O)(c1ccc(-c2ccnc(Nc3ccc4ncsc4c3)n2)cc1)N1CCNCC1
0.41 | CN1CCN(c2ccc(-c3ccnc(Nc4ccc5ncsc5c4)n3)cc2)CC1
4 | CN(CCOc1ccc(-c2ccnc(Nc3ccc4ncsc4c3)n2)cc1)c1ccccn1
0.13 | O=C(Nc1ccc(-c2ccnc(Nc3ccc4ncsc4c3)n2)cc1)C1CCCN1 (stereo unspecified)
2.5 | O=c1ccn(-c2ccc(-c3ccnc(Nc4ccc5ncsc5c4)n3)cc2)cc1
0.4 | O=C(Nc1ccc(-c2ccnc(Nc3ccc4ncsc4c3)n2)cc1)C1CCNCC1
6.6 | c1ccc(Oc2ccc(-c3ccnc(Nc4ccc5ncsc5c4)n3)cc2)cc1
0.41 | CN(C)S(=O)(=O)c1ccc(-c2ccnc(Nc3ccc4ncsc4c3)n2)cc1
0.27 | NCCC(=O)Nc1ccc(-c2ccnc(Nc3ccc4ncsc4c3)n2)cc1
8.9 | O=S(=O)(Nc1ccc(-c2ccnc(Nc3ccc4ncsc4c3)n2)cc1)c1cc(Cl)c(Cl)s1
0.25 | O=S(=O)(c1ccc(-c2ccnc(Nc3ccc4ncsc4c3)n2)cc1)N1CCSCC1
0.23 | O=S(=O)(Nc1ccc(-c2ccnc(Nc3ccc4ncsc4c3)n2)cc1)c1ccc2nonc2c1
0.99 | O=S(=O)(Nc1ccc(-c2ccnc(Nc3ccc4ncsc4c3)n2)cc1)c1ccc(Cl)cc1
0.54 | O=S(=O)(c1ccc(-c2ccnc(Nc3ccc4ncsc4c3)n2)cc1)N1CCCC1
0.44 | O=S(=O)(c1ccccc1)c1ccc(-c2ccnc(Nc3ccc4ncsc4c3)n2)cc1
0.38 | O=S(=O)(c1ccc(-c2ccnc(Nc3ccc4ncsc4c3)n2)cc1)N1CCOCC1
0.6 | O=S(=O)(c1ccc(-c2ccnc(Nc3ccc4ncsc4c3)n2)cc1)N1CCCCC1
8.9 | COc1ccc(S(=O)(=O)Nc2ccc(-c3ccnc(Nc4ccc5ncsc5c4)n3)cc2)cc1
0.7 | c1cn(-c2ccc(-c3ccnc(Nc4ccc5ncsc5c4)n3)cc2)cn1
1.5 | Cc1ccc(S(=O)(=O)Nc2ccc(-c3ccnc(Nc4ccc5ncsc5c4)n3)cc2)cc1
3.6 | c1cnc(Oc2ccc(-c3ccnc(Nc4ccc5ncsc5c4)n3)cc2)nc1

tested on: not listed separately; test: Selectivity ratio of IC50 for E-selectin promoter transfected in human A549 cells to IC50 for IKK2; type: functional; conditions: not given

SMILES | Ratio IC50
O=S(=O)(c1ccc(-c2ccnc(Nc3ccc4ncsc4c3)n2)cc1)N1CCNCC1 | 89
CN1CCN(c2ccc(-c3ccnc(Nc4ccc5ncsc5c4)n3)cc2)CC1 | 3.1
O=C(Nc1ccc(-c2ccnc(Nc3ccc4ncsc4c3)n2)cc1)C1CCNCC1 | 9.5
CN(C)S(=O)(=O)c1ccc(-c2ccnc(Nc3ccc4ncsc4c3)n2)cc1 | 4.7
O=S(=O)(c1ccc(-c2ccnc(Nc3ccc4ncsc4c3)n2)cc1)N1CCSCC1 | 1.2
O=S(=O)(Nc1ccc(-c2ccnc(Nc3ccc4ncsc4c3)n2)cc1)c1ccc2nonc2c1 | 77
O=S(=O)(c1ccc(-c2ccnc(Nc3ccc4ncsc4c3)n2)cc1)N1CCCC1 | 2.8
O=S(=O)(c1ccc(-c2ccnc(Nc3ccc4ncsc4c3)n2)cc1)N1CCOCC1 | 4.8
O=S(=O)(c1ccc(-c2ccnc(Nc3ccc4ncsc4c3)n2)cc1)N1CCCCC1 | 3.5
